Measurements from patent publication US9382306B2, “Octapeptide compounds derived from somatostatin and the therapeutic use thereof” (IPSEN PHARMA S.A.S., priority 2008, dated 2016).
Several values for one entry are separate records, joined by “and”; a condition that tells them apart may be missing. Equal entries are not always repeated. Bridge positions count the residues as written; N and C are the ends. Square brackets hold non-standard residues; d marks the D form. Peptide text beside a SMILES is read from it. ξ: configuration not given here. d2Nal = N[C@H](Cc1ccc2ccccc2c1)C(=O)O; Thr(3ξ) = CC(O)[C@H](N)C(=O)O

Columns and labels:
[1] = Self-assembly study: putting peptides in solution in water, macroscopic, ATR-FTIR, TEM and SAXS analysis; type: physicochemical; settings: 3 to 15% by mass of peptide in water; form and diameter of the self-assembled structure, or soluble / insoluble
Description: The procedure used comprises three stages: putting the peptides in solution and macroscopic analysis; spectroscopic and microscopic analyses of the structures formed and by small-angle X-ray scattering (SAXS) analyses.
The first stage of the characterization of the derivatives is the production of a range of concentrations from 3 to 15% by mass of peptide in water. Gelling of the solution indicates the presence of self-assembled structures which can be nanotubes but can also be fibres or other self-organised structures.
The object of this stage is to verify the presence of self-assembled structures, to characterize their self-assembly and to visualize them by microscopy.
Infrared spectroscopy makes it possible to obtain information on the method of stacking the peptides in the self-assemblies. The amide band spectrum, reflecting the absorption spectra of the carbonyl functions of the peptide backbone, gives information on the type of hydrogen bond in which these groups are involved (H bonds leading to the formation of the […], a helix or also a loop or random conformation) and consequently on the secondary and tertiary structure of the peptides in solution and self-assembled. The attenuated total reflection technique (ATR-FTIR) uses a crystal on which the solid or liquid sample is deposited. The infrared light is guided through this crystal at an angle which allows it to be reflected several times inside the crystal, which increases the sensitivity of the technique. Due to the performance of this device, it is then possible perform measurements on relatively dilute solutions. The beam penetrates a few microns into the sample deposited on the crystal, which means that only the molecules/structures which are deposited on the surface of the crystal are analyzed. Moreover, this technique is non-destructive.
The assembled structures are then visualized by transmission electron microscopy (TEM). This very powerful technique, allowing magnifications greater than 500,000 times, is one of the few techniques capable of visualizing structures on the nanometric scale. The sample is subjected to an electron beam. The visualization of the transmitted beam is produced either by a photoluminescent screen, or by a CCD camera. The sample in the microscope being under vacuum, it is samples dried after staining with uranyl salts in order to increase contrast which are observed.
The peptide in solution is firstly deposited on a copper grid covered with a film of carbon. After deposition of the materiel, the excess liquid is eliminated. In the same way, the solution of colorant, in our case uranyl acetate, is deposited on the grid, the excess is eliminated and the grid is dried in the open air. It can then be introduced into the microscope.
The samples, liquids or gels, are introduced into a capillary column and subjected to a monochromatic flow of X-rays. The intensity diffused is measured as a function of the scattering angle with respect to the incident angle.
The diffusion patterns thus obtained must be the subject of a correlation with a close theoretical model of the structures present in the sample. In the case where the peptides have self-assembled in the form of hollow nanotubes, the modelling of the experimental data with the theoretical diffusion produced by infinitely long hollow columns makes it possible to determine with precision the diameter of the columns and to estimate their wall thickness (Valery et al. in Biophysical journal, 2004, 86(4), 2484-2501 and Proc. Natl. Acad. Sci., 2003, 100(18) 10258-10262). For polydisperse, nanotubular, fibrilar, micellar or lamellar self-assemblies, it is the correlation of the spectroscopic, microscopic and XR scattering data which makes it possible to estimate a size range for the objects observed.

[2] = Rheology of solutions/gels of the octapeptides (oscillatory, cone/plane rheometer); type: physicochemical; settings: 25° C.
Method: The viscous and viscoelastic properties of the solutions/gels of the compounds according to the invention can be studied by rheology according to the operating methods described hereafter.
The measurements are in general carried out using a rheometer of “Control Stress Haake 600” type (Haake, Germany) equipped with a cone/plane measurement geometry, with a cone 20 mm in diameter, an angle of 1 degree and an air gap of 52 microns. The measurement temperature is fixed at 25° C. +/−0.2° C. using a thermostatically-controlled bath but can be adjusted if necessary.
Two complementary types of tests are carried out, on the one hand measurements in static mode and on the other hand measurements in dynamic mode (oscillatory rheology); both are briefly described hereafter. […]
For the dynamic measurements, a shear strain (γ0) […] of sinusoidal type, of known amplitude and frequency is applied to the sample. The resultant sinusoidal shear stress is measured (amplitude τ0). […] In this case, the sine curves recorded for the shear strain and the shear stress having a phase angle difference δ. The values of τ0, γ0 and δ make it possible to access the viscoelastic parameters:
The storage modulus (also called elastic modulus) is a measurement of the elastic energy stored (or restored) per unit volume, whilst the loss modulus is a measurement of the energy dissipated per unit volume. These moduli must be calculated in the linear viscoelastic region (i.e. experimental conditions for which these moduli are independent of the amplitude of the shear stress (strain)). These experimental conditions are in general determined by a so-called “stress sweep” experiment which consists of a measurement of the elastic modulus and the loss modulus as a function of the amplitude of the deformation imposed (for a given frequency, typically 1Hz). In general, in the case of small deformations, G′ and G″ vary very little with the deformation. Then, on passing the yield point, a strong reduction in G′ and a maximum of G″ is observed. This transition delimits the linear viscoelasticity region. When the linear viscoelasticity region is known, other tests can be carried out such as “frequency sweep” measurements consisting of measuring the dependence of G′ and G″ as a function of shear frequency at a fixed deformation amplitude, comprised in the linear viscoelasticity region.
The critical deformation is the deformation from which the elastic modulus dependent on the deformation applied at a constant frequency. For higher deformations, the material looses its viscoelastic properties and tends to become more viscous than elastic. […]

Critical deformation rheology ([2]; 75 mM)	Storage modulus rheology ([2]; 75 mM)	Critical deformation rheology ([2]; 226 mM)	Storage modulus rheology ([2]; 226 mM)	SMILES	Assembly [1]
800 Pa	184,000 Pa	18,600 Pa	>2,700,000 Pa	CC(C)[C@@H]1NC(=O)[C@H](CCCCN)NC(=O)[C@@H](C)NC(=O)[C@H](Cc2ccc(O)cc2)NC(=O)[C@@H](NC(=O)[C@H](N)Cc2ccc3ccccc3c2)CSSC[C@@H](C(=O)N[C@H](C(N)=O)C(C)O)NC1=O (stereo partly drawn) [Example 4, H-D-2-Nal^1-cyclo(Cys^2Tyr^3-D-Ala^4-Lys^5-Val^6Cys^7)-Thr^8-NH2.2 CH3COOH] (H-[d2Nal]CY[dA]KVC[Thr(3ξ)]-NH2; disulfide 2-7)	self-assembled fibres
5000 Pa	643,500 Pa	8500 Pa	>2,700,000 Pa	CC(C)[C@@H]1NC(=O)[C@H](CCCCN)NC(=O)[C@@H](Cc2cccc3ccccc23)NC(=O)[C@H](Cc2ccc(O)cc2)NC(=O)[C@@H](NC(=O)[C@H](N)Cc2ccc3ccccc3c2)CSSC[C@@H](C(=O)N[C@H](C(N)=O)C(C)O)NC1=O (stereo partly drawn) [Example 6, H-D-2-Nal^1-cyclo(Cys^2Tyr^3-13-(1-naphthyl)-D-Ala^4-Lys^5-Val^6-Cys^7)-Thr^8-NH2.2 CH3COOH]	monodisperse peptide nanotubes and 35 nm monodisperse nanotube
Viscosity	Viscosity	360 Pa	150,000 Pa	CC(C)[C@@H]1NC(=O)[C@H](CCCCN)NC(=O)[C@@H](Cc2c[nH]cn2)NC(=O)[C@H](Cc2ccc(O)cc2)NC(=O)[C@@H](NC(=O)[C@H](N)Cc2ccc3ccccc3c2)CSSC[C@@H](C(=O)N[C@H](C(N)=O)C(C)O)NC1=O (stereo partly drawn) [Example 3, H-D-2-Nal^1-cyclo(Cys^2-Tyr^3-D-His^4-Lys^5-Val^6-Cys^7)-Thr^8-NH2.2 CH3COOH] (H-[d2Nal]CY[dH]KVC[Thr(3ξ)]-NH2; disulfide 2-7)	monodisperse peptide nanotubes and 9.3 nm monodisperse nanotube
